Laboratory results as given in patent publication US11761045B2, “Splice variants associated with neomorphic SF3B1 mutants” (Eisai R&D Management Co., Ltd., priority 2015, dated 2023).

Legend:
[1] = tested on: Nalm-6 SF3B1^K700E xenograft tumors; assay: Splicing modulation and compound concentration in xenograft tumors after single IV dose; format: in vivo, CB17-SCID mice; conditions: single IV dose 5 mg/kg
Experimental: (§1) In addition, the ability of E7107 to modulate splicing was tested in mice bearing human tumor xenografts. Nalm-6 isogenic xenograft mice were generated by subcutaneously implanting 10×10^6 Nalm-6 isogenic cells into the flank of CB17-SCID mice, and tumors from these mice were collected at different timepoints after a single intravenous (IV) dose of E7107 (5 mg/kg) and analyzed to determine compound concentrations and splicing regulation. RNA was isolated from the tumors using RiboPure™ RNA purification kit (Ambion®) and used for NanoString® assay or qPCR. The RNA was retrotranscribed according to the instructions of the SuperScript® VILO™ cDNA synthesis kit (Invitrogen™) and 0.04 μl of cDNA was used for qPCR. qPCR for pre-mRNA EIF4A1 and mature mRNA […] and pharmacokinetic evaluation were performed as described in Eskens, F. A. et al. “Phase I pharmacokinetic and pharmacodynamic study of the first-in-class spliceosome inhibitor E7107 in patients with advanced solid tumors.” Clin Cancer Res 19, 6296-6304, doi:10.1158/1078-0432.CCR-13-0485 (2013). The primers and probes used for ZDHHC16 were the following: FW 5′-[…] (SEQ ID NO: 1194), RW 5′ […] (SEQ ID NO: 1195) and probe 5′ FAM […] (SEQ ID NO: 1196). The primers and probes used for COASY were the following: FW 5′-CGGTGGTGCAAGTGGAA (SEQ ID NO: 1197), RW 5′-[…] (SEQ ID NO: 1198) and probe 5′-FAM-[…] (SEQ ID NO: 1199).

[2] = tested on: Nalm-6 SF3B1^K700K xenograft tumors; assay: as above; format: in vivo, CB17-SCID mice; conditions: single IV dose 5 mg/kg
Experimental: as §1

[3] = tested on: neomorphic SF3B1^MUT CLL patient samples; assay: Splicing inhibition in CLL patient samples in vitro by RNA-Seq; format: cell-based, human; conditions: 10 nM, 6 hours
Experimental: (§2) The ability of E7107 to inhibit splicing in CLL patient samples in vitro was determined by isolating RNA from samples of E7107-treated patient cells treated for 6 hours with E7107 at 10 nM and performing RNA-Seq analysis. To do so, cells were washed with PBS after treatment with E7107, and RNA was isolated using PureLink (Life Technology) as reported in the manufacturer's manual. cDNA library preparation, sequencing and raw read filtering was performed as described in Ren, S. et al. “RNA-Seq analysis of prostate cancer in the Chinese population identifies recurrent gene fusions, cancer-associated long noncoding RNAs and aberrant alternative splicings.” Cell Res 22, 806-821, doi:10.1038/cr.2012.30 (2012).

[4] = tested on: SF3B1^WT CLL patient samples; assay: as above; format: cell-based, human; conditions: 10 nM, 6 hours
Experimental: as §2

Nalm-6 SF3B1^K700K cells = assay: Splice variant levels in Nalm-6 isogenic cells by NanoString assay; format: cell-based, human; conditions: 15 nM
Experimental: (§3) A NanoString® assay was developed to quantify aberrant and canonical splice variants and was validated using the same cell panel. For the NanoString® assay, 750 ng of purified total RNA was used as template for the nCounter® (NanoString Technologies®) expression assay using a custom panel of NanoString® probes. The sample preparation was set up as recommended (NanoString® Technologies protocol no. C-0003-02) for an overnight hybridization at 65° C. The following day, samples were processed through the automated nCounter® Analysis System Prep Station using the high sensitivity protocol (NanoString® Technologies protocol no. MAN-00029-05) followed by processing through the nCounter® Analysis System Digital Analyzer (protocol no. MAN-00021-01) using 1150 FOVs for detection. Data was downloaded and analyzed for quality control metrics and normalization using the nSolver™ Analysis Software (NanoString Technologies®). The data was first normalized for lane-to-lane variation using the positive assay controls provided by the manufacturer (NanoString® positive controls A-F [containing in vitro transcribed RNA transcripts at concentrations of 128 fM, 32 fM, 8 fM, 2 fM, 0.5 fM, and 0.125 fM, each pre-mixed with NanoString® Reporter CodeSet probes])). Any samples with normalization factors <0.3 and >3 were not considered for further analysis. This was followed by content normalization using the geo-mean of GAPDH, EEF1A1 and RPLP0. All samples were within the recommended 0.1-10 normalization factor range. Each normalized value was then checked to ensure that it was at least two standard deviations higher than the average of background signal recorded for that lane. Any value below that was considered below detection limit. These normalized values were taken for further bioinformatics and statistical analysis.
(§4) To investigate the broader activity of E7107 on normal and aberrant splicing, RNA from Nalm-6 isogenic cells treated for two and six hours at 15 nM was analyzed by NanoString®. […] Normal and aberrant splicing in the isogenic cell lines was also analyzed by RNA-Seq following treatment with one of additional compounds having formulas 1 or 2. […] For the RNA-Seq analysis, cells were washed with PBS after treatment with E7107 or other test compound, and RNA was isolated using PureLink (Life Technology) as reported in the manufacturer's manual. cDNA library preparation, sequencing and raw read filtering was performed as described in Ren, S. et al. “RNA-Seq analysis of prostate cancer in the Chinese population identifies recurrent gene fusions, cancer-associated long noncoding RNAs and aberrant alternative splicings.” Cell Res 22, 806-821, doi:10.1038/cr.2012.30 (2012).

Nalm-6 SF3B1^K700E cells = assay: as above; format: cell-based, human; conditions: 15 nM
Experimental: as §3, §4

[5] = tested on: Nalm-6 SF3B1^K700E xenograft; assay: Antitumor activity in subcutaneous Nalm-6 SF3B1^K700E xenograft model; format: in vivo, CB17-SCID mice
Experimental: SF3B1 modulator E7107 was tested for antitumor activity in vivo by determining the effect of E7107 in a subcutaneous model of Nalm-6 SF3B1^K700E. […] After this dosing, the animals were monitored until they reached either of the following endpoints: 1) excessive tumor volume measured three times a week (tumor volume calculated by using the ellipsoid formula: […]), or 2) development of any health problem such as paralysis or excessive body weight loss. Partial regression (PR) and complete regression (CR) are defined as 3 consecutive tumor measurements <50% and <30% of starting volume respectively.

CC[C@H](O)[C@@H](C)[C@H]1O[C@@H]1C[C@@](C)(O)/C=C/C=C(\C)[C@H]1OC(=O)C[C@H](O)CC[C@@](C)(O)[C@@H](OC(=O)N2CCN(C3CCCCCC3)CC2)/C=C/[C@@H]1C [Compound E7107]
abnormal splicing of COASY and ZDHHC16 in tumor, qPCR [1]: downregulated abnormal splicing | canonical splicing in tumor (EIF4A1 pre-mRNA, SLC25A19 mature mRNA), qPCR [1]: modulated canonical splicing | canonical and aberrant splice mRNA isoforms in tumor, NanoString ([1]; timepoints after dose): downregulated by E7107 as early as one hour following administration | canonical splicing in tumor (EIF4A1 pre-mRNA, SLC25A19 mature mRNA), qPCR [2]: modulated canonical splicing | canonical and aberrant splice mRNA isoforms in tumor, NanoString ([2]; timepoints after dose): downregulated by E7107 as early as one hour following administration | expression of canonical splice isoforms [3]: inhibited the expression of canonical splice isoforms | aberrant splicing ([3]; all samples carrying neomorphic SF3B1 mutations): able to modulate aberrant splicing | expression of canonical splice isoforms [4]: inhibited the expression of canonical splice isoforms | inhibition of splicing (all isoforms quantified) (Nalm-6 SF3B1^K700K cells; six hours): clear inhibition | inhibition of splicing (gene, WT-associated and MUT-associated isoform expression) (Nalm-6 SF3B1^K700K cells; two hours): partial inhibition of splicing | inhibition of splicing (all isoforms quantified) (Nalm-6 SF3B1^K700E cells; six hours): clear inhibition | inhibition of splicing (gene, WT-associated and MUT-associated isoform expression) (Nalm-6 SF3B1^K700E cells; two hours): partial inhibition of splicing | complete regression (CR) ([5]; 1.25 mg/kg IV QDx5, n=10): all animals (n=10) reached complete regression (CR) | complete regressions (CRs), animals ([5]; 2.5 mg/kg IV QDx5, by day 9): 10/10 | complete regression (CR) ([5]; 5 mg/kg IV QDx5): all Nalm-6 SF3B1^K700E xenograft animals reached CR as early as 9 days post treatment | mean survival time ([5]; 5 mg/kg IV QDx5): over 250 days | tolerability of dose levels ([5]; 1.25, 2.5 and 5 mg/kg IV QDx5): well tolerated
